The results in this text go back to US8097637B2, “Benzoyl-piperidine derivatives as dual modulators of the 5-HT2A and D3 receptors” (Hoffmann-La Roche Inc., priority 2007, dated 2012).

In assay [1] the target is T1, human D2 dopamine receptor (Homo sapiens, UniProt P14416).
T1 construct: expressed in transfected cells; host or cells: HEK-293 EBNA cells, transient transfection; membrane preparation
The experiment in a line: Radioligand binding ([3H]-spiperone) to cloned human D2 receptor, HEK-293 EBNA cell membranes. The settings on record: 0.7 nM [3H]-spiperone, 1 h at RT, Cheng-Prusoff. As for the experimental part:
(§1) Membrane Preparation for Human D2, Human D3 and Human 5-HT2A Receptors
(§2) HEK-293 EBNA cells were transiently transfected with expression plasmids encoding for the human D2 or D3 dopamine- or for the human 5-HT2A serotonin receptor, respectively. The cells were harvested 48 h post-transfection, washed three times with cold PBS and stored at −80° C. prior to use. The pellet was suspended in cold 50 mM Tris-HCl buffer containing 10 mM EDTA (pH 7.4) and homogenized with a Polytron (Kinematica AG, Basel, Switzerland) for 20-30 sec at 12.000 rpm. After centrifugation at 48.000×g for 30 min at 4° C., the pellet was resuspended in cold 10 mM Tris-HCl buffer containing 0.1 mM EDTA (pH 7.4), homogenized, and centrifuged as above. This pellet was further resuspended in a smaller volume of ice cold 10 mM Tris-HCl buffer containing 0.1 mM EDTA (pH 7.4) and homogenized with a Polytron for 20-30 sec at 12.000 rpm. The protein content of this homogenate was determined with the Bio-Rad (Bradford) Protein Assay (Biorad Laboratories GmbH, München, Germany) according to the instructions of the manufacturer using gamma globulin as the standard. This homogenate was stored at −80° C. in aliquots and thawed immediately prior to use.
(§3) Radioligand Binding Assay Conditions
(§4) Aliquots of membrane preparations were thawed at RT, resuspended in assay buffer (D2, D3: 50 mM Tris-HCl, 120 mM NaCl, 5 mM MgCl2, 1 mM EDTA, 5 mM KCl, 1.5 mM CaCl2, pH=7.4; 5-HT2A: 50 mM Tris-HCl, 10 mM MgCl2, 1 mM EGTA, pH=7.4), homogenized with a Polytron for 20-30 sec at 12.000 rpm and adjusted to a final concentration of approximately 7.5 μg protein/well (D2, D3) and 15 μg protein/well (5-HT2A), respectively.
(§5) The binding affinity (Ki) of the compounds was determined using radioligand binding. Membranes were incubated in a total volume of 200 μl with a fixed concentration of radioligand (final concentration approximately 0.7 nM [^3H]-spiperone for D2, 0.5 nM [^3H]-spiperone for D3, and 1.1 nM [^3H]-ketanserin for 5-HT2A) and ten concentrations of test compound in ranging between 10 μM-0.1 nM for 1 h at RT. At the end of the incubation, the reaction mixtures were filtered on to unifilter 96-well white microplates with bonded GF/C filters (Packard BioScience, Zürich, Switzerland; preincubated for 1 h in 0.1% polyethylenimine (PEI) in assay buffer) with a Filtermate 196 harvester (Packard BioScience) and washed 3 times with cold assay buffer. The nonspecific binding was determined with equally composed reaction mixtures in the presence of 10 μM unlabeled spiperone. Per well 45 μl of Microscint 40 (Perkin Elmer, Schwerzenbach, Switzerland) was added, plates for sealed, shaken for 20 min and counted for 3 min on a Topcount Microplate Scintillation Counter (Canberra Packard SA, Zürich, Switzerland) with quenching correction.
(§6) The CPM value for each duplicate of a concentration of competing compound was averaged (yl), then the % specific binding was calculated according to the equation (((yl-non-specific)/(total binding-non-specific))×100). Graphs were plotted with the % specific binding using XLfit, a curve fitting program that iteratively plots the data using Levenburg Marquardt algorithm. The single site competition analysis equation used was y=A+((B−A)/(1+((x/C)^D))), where y is the % specific binding, A is the minimum y, B is the maximum y, C is the IC50, x is the log10 of the concentration of the competing compound and D is the slope of the curve (the Hill Coefficient). […] The affinity constant (Ki) was calculated using the Cheng-Prusoff equation Ki=(IC50/1+([L]/Kd), where [L] is the concentration of radioligand and Kd is the dissociation constant of the radioligand at the receptor as determined by the saturation isotherm.

Assay [2] deals with T2, human D3 dopamine receptor (Homo sapiens, UniProt P35462).
T2 construct: expressed in transfected cells; host or cells: HEK-293 EBNA cells, transient transfection; membrane preparation
Kind of assay: Radioligand binding ([3H]-spiperone) to cloned human D3 receptor, HEK-293 EBNA cell membranes. The conditions noted are these: 0.5 nM [3H]-spiperone, 1 h at RT, Cheng-Prusoff. On the procedure:
The ability of the compounds to bind to the 5-HT2A, D3 and D2 receptors was determined using radioligand binding to cloned receptors selectively expressed in HEK-293 EBNA cells.
as §1, §2, §3, §4, §5, §6

Assay [3] has as its target T3, human 5-HT2A serotonin receptor (Homo sapiens, UniProt P28223).
T3 construct: expressed in transfected cells; host or cells: HEK-293 EBNA cells, transient transfection; membrane preparation
Kind of assay: Radioligand binding ([3H]-ketanserin) to cloned human 5-HT2A receptor, HEK-293 EBNA cell membranes. The conditions noted are these: 1.1 nM [3H]-ketanserin, 1 h at RT, Cheng-Prusoff. As for the experimental part: as §1
as §2, with “The” for “HEK-293 EBNA cells were transiently transfected with expression plasmids encoding for the human D2 or D3 dopamine- or for the human 5-HT2A serotonin receptor, respectively. The”
as §3, §4
The binding affinity (Ki) of the compounds was determined using radioligand binding. […] The nonspecific binding was determined with equally composed reaction mixtures in the presence of 10 μM unlabeled spiperone. Per well 45 μl of Microscint 40 (Perkin Elmer, Schwerzenbach, Switzerland) was added, plates for sealed, shaken for 20 min and counted for 3 min on a Topcount Microplate Scintillation Counter (Canberra Packard SA, Zürich, Switzerland) with quenching correction.
as §6

T2 sequence (P35462 whole entry): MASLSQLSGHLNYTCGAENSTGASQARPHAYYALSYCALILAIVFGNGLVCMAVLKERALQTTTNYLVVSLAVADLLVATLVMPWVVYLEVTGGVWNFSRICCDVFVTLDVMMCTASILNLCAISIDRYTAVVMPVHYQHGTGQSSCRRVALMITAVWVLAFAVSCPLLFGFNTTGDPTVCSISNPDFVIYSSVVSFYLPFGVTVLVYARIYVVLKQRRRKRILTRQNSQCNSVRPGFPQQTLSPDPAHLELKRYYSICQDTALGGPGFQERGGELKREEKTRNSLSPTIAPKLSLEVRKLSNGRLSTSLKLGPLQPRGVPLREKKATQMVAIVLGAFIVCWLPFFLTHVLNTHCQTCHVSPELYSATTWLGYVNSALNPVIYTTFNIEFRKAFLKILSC
T1 sequence (P14416 whole entry): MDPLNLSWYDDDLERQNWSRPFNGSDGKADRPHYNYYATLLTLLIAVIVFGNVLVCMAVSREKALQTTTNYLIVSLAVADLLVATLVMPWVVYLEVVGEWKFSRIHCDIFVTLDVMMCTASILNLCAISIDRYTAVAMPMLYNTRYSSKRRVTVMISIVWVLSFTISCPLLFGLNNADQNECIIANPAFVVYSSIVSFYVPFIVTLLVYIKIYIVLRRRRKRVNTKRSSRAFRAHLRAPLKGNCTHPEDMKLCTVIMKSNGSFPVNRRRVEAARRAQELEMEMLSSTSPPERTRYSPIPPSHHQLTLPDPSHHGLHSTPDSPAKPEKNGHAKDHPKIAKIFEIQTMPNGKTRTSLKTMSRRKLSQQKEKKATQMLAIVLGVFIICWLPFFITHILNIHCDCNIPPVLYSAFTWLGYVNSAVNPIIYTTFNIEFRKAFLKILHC
T3 sequence (P28223 whole entry): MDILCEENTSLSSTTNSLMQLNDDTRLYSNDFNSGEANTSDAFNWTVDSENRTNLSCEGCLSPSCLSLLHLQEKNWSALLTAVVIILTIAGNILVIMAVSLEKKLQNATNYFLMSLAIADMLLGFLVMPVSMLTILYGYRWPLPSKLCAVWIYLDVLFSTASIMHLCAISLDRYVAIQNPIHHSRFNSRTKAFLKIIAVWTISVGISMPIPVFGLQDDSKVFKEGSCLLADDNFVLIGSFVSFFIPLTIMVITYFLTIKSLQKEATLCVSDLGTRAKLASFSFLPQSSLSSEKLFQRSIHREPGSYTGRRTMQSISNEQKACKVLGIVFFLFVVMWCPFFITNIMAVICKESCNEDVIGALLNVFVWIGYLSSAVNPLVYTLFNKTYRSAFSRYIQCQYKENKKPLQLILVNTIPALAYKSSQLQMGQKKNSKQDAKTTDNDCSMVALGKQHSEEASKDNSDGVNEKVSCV

As a reminder, the Ki is the dissociation constant of the complex between target and ligand, obtained from inhibition or displacement. `O=C(C[C@H]1CC[C@H](O)C1)N[C@H]1CC[C@H](CCN2CCC(C(=O)c3ccc(F)cc3)CC2)CC1` (racemic) [Example 7, rac-N-trans (4-{2-[4-(4-Fluoro-benzoyl)-piperidin-1-yl]-ethyl}-cyclohexyl)-2-trans (3-hydroxy-cyclopentyl)-acetamide]: the Ki in assay [1] worked out at 0.807 µM; in assay [2] it was 0.019 µM; in assay [3], 0.016 µM.

For the compound `O=C(CC1CCC(OC2CCOC2)CC1)N[C@H]1CC[C@H](CCN2CCC(C(=O)c3ccc(F)cc3)CC2)CC1` (mixture of isomers) [Example 17, rac-N-Trans (4-{2-[4-(4-Fluoro-benzoyl)-piperidin-1-yl]-ethyl}-cyclohexyl)-2-[4-(tetrahydro-furan-3-yloxy)-cyclohexyl]-acetamide], the Ki in assay [1] worked out at 2.61 µM; in assay [2] it was 0.04 µM; in assay [3], 0.011 µM.

As to `CCO[C@H]1CC[C@H](CC(=O)N[C@H]2CC[C@H](CCN3CCC(C(=O)c4ccc(F)cc4)CC3)CC2)C1` (racemic) [Example 18, rac-2-(trans-3-Ethoxy-cyclopentyl)-N-trans-(4-{2-[4-(4-fluoro-benzoyl)-piperidin-1-yl]-ethyl}-cyclohexyl)-acetamide], the Ki in assay [1] is 1.94 µM; in assay [2] it was 0.042 µM; in assay [3], 0.028 µM.

Consider `COCC1CCC(CC(=O)N[C@H]2CC[C@H](CCN3CCC(C(=O)c4ccc(F)cc4)CC3)CC2)C1` (mixture of isomers) [Example 28, rac-N-trans (4-{2-[4-(4-Fluoro-benzoyl)-piperidin-1-yl]-ethyl}-cyclohexyl)-2-(3-methoxymethyl-cyclopentyl)-acetamide], for which the Ki in assay [1] was determined as 1.29 µM; in assay [2] it was 0.033 µM; in assay [3] it was 0.007 µM.

In the case of `COC1CCC(CCC(=O)N[C@H]2CC[C@H](CCN3CCC(C(=O)c4ccc(F)cc4)CC3)CC2)CC1` (mixture of isomers) [Example 29, rac-N-trans (4-{2-[4-(4-Fluoro-benzoyl)-piperidin-1-yl]-ethyl}-cyclohexyl)-3-(4-methoxy-cyclohexyl)-propionamide], the Ki is 1.41 µM in assay [1], 0.041 µM in assay [2] and 0.007 µM in assay [3].

Turning to `CO[C@@H]1CCC[C@@H](CC(=O)N[C@H]2CC[C@H](CCN3CCC(C(=O)c4ccc(F)cc4)CC3)CC2)C1` (single isomer, unassigned) [Example 16, N-trans (4-{2-[4-(4-Fluoro-benzoyl)-piperidin-1-yl]-ethyl}-cyclohexyl)-2-((1R,3R)-3-methoxy-cyclohexyl)-acetamide or N-trans (4-{2-[4-(4-fluoro-benzoyl)-piperidin-1-yl]-ethyl}-cyclohexyl)-2-((1S,3S)-3-methoxy-cyclohexyl)-acetamide], the Ki amounted to 1.25 µM in assay [1], 0.035 µM in assay [2] and 0.007 µM in assay [3].

As for `C[C@]1(O)CC[C@H](CC(=O)N[C@H]2CC[C@H](CCN3CCC(C(=O)c4ccc(F)cc4)CC3)CC2)CC1` (single isomer, unassigned) [Example 23, N-trans (4-{2-[4-(4-Fluoro-benzoyl)-piperidin-1-yl]-ethyl}-cyclohexyl)-2-(4-trans-hydroxy-4-methyl-cyclohexyl)-acetamide or N-trans (4-{2-[4-(4-fluoro-benzoyl)-piperidin-1-yl]-ethyl}-cyclohexyl)-2-(4-cis-hydroxy-4-methyl-cyclohexyl)-acetamide], the Ki came to 1.3 µM in assay [1], 0.049 µM in assay [2] and 0.007 µM in assay [3].

Consider `C[C@]1(O)CC[C@@H](CC(=O)N[C@H]2CC[C@H](CCN3CCC(C(=O)c4ccc(F)cc4)CC3)CC2)CC1` (single isomer, unassigned) [Example 24, N-trans (4-{2-[4-(4-Fluoro-benzoyl)-piperidin-1-yl]-ethyl}-cyclohexyl)-2-(4-cis-hydroxy-4-methyl-cyclohexyl)-acetamide or N-trans (4-{2-[4-(4-fluoro-benzoyl)-piperidin-1-yl]-ethyl}-cyclohexyl)-2-(4-trans-hydroxy-4-methyl-cyclohexyl)-acetamide], for which the results for the Ki in assay [1], in assay [2] and in assay [3] were 1.2 µM, 0.043 µM and 0.009 µM, respectively.
